Usually IC50 stands for the concentration that gives 50% inhibition.

SMILES strings stand for the structures.

One series concerns the target T1, hERG K channel (Homo sapiens, UniProt Q12809).
T1 construct: host or cells: CHO
The series can be described thus: hERG Q-Patch assay. As to conditions: CHO cells expressing hERG, K+ tail current 3 min after application, mean of two or three experiments. The class given is cell-based. As for the experimental part:
B) hERG Q-Patch assay: Compounds are evaluated for block of the hERG K channel using CHO cells stably expressing the hERG gene (accession number U04270, bSys, Witterswil. Switzerland) and the Patch robotic platform (Sophion, Ballerup, Denmark) in single-cell mode at room temperature. […] When the cells are ˜80% confluent (every 2-3 days), they are either split for further culture or used for electrophysiology. […] Cells are kept in suspension medium at 32-35° C. in the QPatch robot until use, at which time aliquots are transferred to the extracellular solution (in mM: NaCl 150; KCl 4; CaCl2 1.2; MgCl2 1; HEPES 10; pH 7.4 with NaOH) containing 0.3% v/v DMSO and applied to the test plates. K^+ currents are measured with the patch-voltage-clamp technique in the whole-cell configuration with the internal solution (in […]: KCl, 140; NaCl, 10; MgCl2, 1; HEPES, 10; EGTA, 5; pH=7.2 with KOH). […] K^+tail currents are produced from a holding voltage of −80 mV by a 500-ms depolarization to +20 mV followed by a 500-ms repolarization to −40 mV; tail current amplitudes are measured at the end of the repolarization to −40 mV. The pulse pattern is repeated every 10 sec during the experiment, baseline K^+ current is measured after 3 min in extracellular solution, test-solution containing compound is then applied, and K^+ current in presence of compound is measured 3 minutes after application to the cells.
In general terms: hERG is a cardiac potassium channel; its block is linked to QT prolongation.

In another series the target is T2, human CXCR3A (Homo sapiens, UniProt P49682).
T2 construct: expressed in transfected cells; host or cells: CHO-K1
T2 sequence (P49682 1-368): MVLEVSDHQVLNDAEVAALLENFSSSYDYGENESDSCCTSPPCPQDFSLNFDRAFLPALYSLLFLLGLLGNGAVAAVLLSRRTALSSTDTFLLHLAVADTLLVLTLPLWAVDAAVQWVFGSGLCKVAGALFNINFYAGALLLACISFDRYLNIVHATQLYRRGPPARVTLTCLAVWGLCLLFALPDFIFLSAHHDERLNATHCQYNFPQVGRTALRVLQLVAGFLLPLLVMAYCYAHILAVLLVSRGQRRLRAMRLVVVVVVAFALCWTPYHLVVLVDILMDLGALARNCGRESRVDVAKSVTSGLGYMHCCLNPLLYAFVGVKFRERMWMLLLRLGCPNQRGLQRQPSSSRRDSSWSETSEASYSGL
The series can be described thus: FLIPR assay (CXCL10-induced calcium signal in CHO-K1 cells). The series is classed as cell-based. As to conditions: CHO-K1 cells expressing human CXCR3A coupled to Galpha(16); CXCL10 agonist 20 nM; mean values. As to the method:
A) FLIPR assay: The bioactivity of compounds is tested in a fluorometric imaging plate reader (FLIPR: Molecular Devices) using engineered CHO-K1 cells expressing the human CXCR3A (GenBank: AY242128) coupled to a G protein (Galpha(16)). Cells are plated the day prior to bioassay in F12 medium supplemented with 10% FBS and G418 and hygromycin antibiotics to maintain recombinant selection. […] Cells are washed free of excess dye and 60 microliter of wash buffer is added. Stock solutions of test compounds are made up at a concentration of 10 mM in DMSO, and serially diluted in dilution buffer to concentrations required for inhibition dose response curves. After a 10 minute incubation period at 37° C., 10 microliters of each compound dilution are transferred from a compound plate to the plate containing the recombinant cells in the FLIPR instrument according to the manufacturer's instructions. Following basal readings, 10 microliter CXCL10 agonist at a concentration of 20 nM (from Peprotech) is added, again using the FLIPR instrument. Changes in fluorescence are monitored before and after addition of the test compounds. Emission peak values above base level after CXCL10 addition are exported after base line subtraction. The program XLfit is used to fit the data to a single site dose response curve and to calculate IC50 values. The calculated IC50 values may fluctuate depending on the daily assay performance. Fluctuations of this kind are known to those skilled in the art.

T1 sequence (Q12809 whole entry): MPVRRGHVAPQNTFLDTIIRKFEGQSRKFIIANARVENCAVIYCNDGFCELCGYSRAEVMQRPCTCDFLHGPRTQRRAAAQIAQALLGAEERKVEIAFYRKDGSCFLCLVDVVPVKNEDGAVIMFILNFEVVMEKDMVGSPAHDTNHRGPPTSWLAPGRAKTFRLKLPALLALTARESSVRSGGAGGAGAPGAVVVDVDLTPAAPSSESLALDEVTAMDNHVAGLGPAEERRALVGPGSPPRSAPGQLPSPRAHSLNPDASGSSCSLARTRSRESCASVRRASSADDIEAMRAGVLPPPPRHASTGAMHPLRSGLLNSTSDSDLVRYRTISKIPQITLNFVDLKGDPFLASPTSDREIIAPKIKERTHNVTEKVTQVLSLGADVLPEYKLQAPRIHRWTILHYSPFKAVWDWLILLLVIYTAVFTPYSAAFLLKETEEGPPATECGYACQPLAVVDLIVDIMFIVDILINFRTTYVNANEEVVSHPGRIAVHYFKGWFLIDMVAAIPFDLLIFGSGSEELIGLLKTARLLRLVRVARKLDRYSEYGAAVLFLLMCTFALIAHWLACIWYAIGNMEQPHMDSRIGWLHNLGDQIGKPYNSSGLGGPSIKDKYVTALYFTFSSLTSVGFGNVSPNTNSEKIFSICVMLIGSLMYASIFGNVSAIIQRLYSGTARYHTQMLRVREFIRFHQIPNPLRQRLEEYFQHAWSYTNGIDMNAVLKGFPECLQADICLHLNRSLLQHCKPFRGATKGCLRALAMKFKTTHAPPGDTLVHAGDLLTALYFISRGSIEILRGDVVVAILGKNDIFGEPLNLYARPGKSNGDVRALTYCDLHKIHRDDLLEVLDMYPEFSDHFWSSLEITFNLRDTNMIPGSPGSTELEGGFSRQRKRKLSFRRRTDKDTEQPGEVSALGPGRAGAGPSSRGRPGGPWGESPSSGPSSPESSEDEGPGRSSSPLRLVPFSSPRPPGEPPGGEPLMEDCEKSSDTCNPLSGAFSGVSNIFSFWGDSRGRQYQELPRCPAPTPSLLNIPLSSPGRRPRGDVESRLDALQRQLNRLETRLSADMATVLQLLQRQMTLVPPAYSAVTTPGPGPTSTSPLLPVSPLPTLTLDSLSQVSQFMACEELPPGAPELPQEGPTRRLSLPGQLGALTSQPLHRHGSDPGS

For the compound `CCOc1ncc(-c2nc(C(F)(F)F)sc2N2CCN(C(=O)Cn3nc(C)nc3CC)[C@H](C)C2)cn1` (single isomer, unassigned) [Example 19], the results for the “% block” value at hERG K channel (concentration 300 nM) and on hERG K channel (concentration 3000 nM) were 4% and 12%, respectively. Further, the IC50 at human CXCR3A worked out at 8.5 nM.
The matching figures for `CCc1nc(C)n(CC(=O)N2CCN(c3sc(C(F)(F)F)nc3-c3cnc(C(F)(F)F)nc3)C[C@H]2C)n1` (single isomer, unassigned) [Example 46]: 13%, 29% and 1.6 nM.
Turning to `CCc1nc(C)nn1CC(=O)N1CCN(c2sc(C(F)(F)F)nc2-c2cnc(C(F)(F)F)nc2)C[C@H]1C` (single isomer, unassigned) [Example 47], the figures for the “% block” value at hERG K channel (concentration 300 nM) and on hERG K channel (concentration 3000 nM) were 5% and 18%, respectively. In addition, the IC50 on human CXCR3A is 3.5 nM.
The matching figures for `COc1ccc(-c2nc(C(F)(F)F)sc2N2CCN(C(=O)Cn3nc(C)nc3C)[C@H](C)C2)cc1` [Example 1, 2-(3,5-Dimethyl-[1,2,4]triazol-1-yl)-1-{(R)-4-[4-(4-methoxy-phenyl)-2-trifluoromethyl-thiazol-5-yl]-2-methyl-piperazin-1-yl}-ethanone]: 4%, 13% and 111 nM.
With `Cc1nc(C)n(CC(=O)N2CCN(c3sc(C(F)(F)F)nc3-c3ccc(OC(C)C)cc3)C[C@H]2C)n1` [Example 2, 2-(3,5-Dimethyl-[1,2,4]triazol-1-yl)-1-{(R)-4-[4-(4-isopropoxy-phenyl)-2-trifluoromethyl-thiazol-5-yl]-2-methyl-piperazin-1-yl}-ethanone], the “% block” value at hERG K channel (concentration 300 nM) was found to be 7%; at hERG K channel (concentration 3000 nM), 38%. Further, on human CXCR3A, the IC50 is 16 nM.
On to `Cc1nc(C)n(CC(=O)N2CCN(c3sc(C(F)(F)F)nc3-c3ccc(OC(F)(F)F)cc3)C[C@H]2C)n1` [Example 3, 2-(3,5-Dimethyl-[1,2,4]triazol-1-yl)-1-{(R)-2-methyl-4-[4-(4-trifluoromethoxy-phenyl)-2-trifluoromethyl-thiazol-5-yl]-piperazin-1-yl}-ethanone], for which the “% block” value on hERG K channel (concentration 300 nM) is 19%; on hERG K channel (concentration 3000 nM), 60%. Moreover, at human CXCR3A, the IC50 is 9.8 nM.
In the case of `Cc1nc(C)n(CC(=O)N2CCN(c3sc(C(F)(F)F)nc3-c3ccc(OCC(F)(F)F)cc3)C[C@H]2C)n1` [Example 4, 2-(3,5-Dimethyl-[1,2,4]triazol-1-yl)-1-((R)-2-methyl-4-{4-[4-(2,2,2-trifluoro-ethoxy)-phenyl]-2-trifluoromethyl-thiazol-5-yl}-piperazin-1-yl)-ethanone], the entries for the “% block” value on hERG K channel (concentration 300 nM) and on hERG K channel (concentration 3000 nM) were 25% and 54%, respectively. Moreover, the IC50 at human CXCR3A is 12 nM.
`Cc1nc(C)n(CC(=O)N2CCN(c3sc(C(F)(F)F)nc3-c3ccc(C#N)cc3)C[C@H]2C)n1` [Example 5, 4-(5-{(R)-4-[2-(3,5-Dimethyl-[1,2,4]triazol-1-yl)-acetyl]-3-methyl-piperazin-1-yl}-2-trifluoromethyl-thiazol-4-yl)-benzonitrile]: the IC50 at human CXCR3A came to 24 nM.
As for `Cc1nc(C)n(CC(=O)N2CCN(c3sc(C(F)(F)F)nc3-c3ccc(F)cc3)C[C@H]2C)n1` [Example 6, 2-(3,5-Dimethyl-[1,2,4]triazol-1-yl)-1-{(R)-4-[4-(4-fluoro-phenyl)-2-trifluoromethyl-thiazol-5-yl]-2-methyl-piperazin-1-yl}-ethanone], the “% block” value was 11% at hERG K channel (concentration 300 nM) and 51% on hERG K channel (concentration 3000 nM). Also, the IC50 at human CXCR3A came to 64 nM.
The like results for `Cc1ccc(-c2nc(C(F)(F)F)sc2N2CCN(C(=O)Cn3nc(C)nc3C)[C@H](C)C2)cc1` [Example 8, 2-(3,5-Dimethyl-[1,2,4]triazol-1-yl)-1-[(R)-2-methyl-4-(4-p-tolyl-2-trifluoromethyl-thiazol-5-yl)-piperazin-1-yl]-ethanone] were, in that order, 22%, 61% and 28 nM.
`CCc1ccc(-c2nc(C(F)(F)F)sc2N2CCN(C(=O)Cn3nc(C)nc3C)[C@H](C)C2)cc1` [Example 9, 2-(3,5-Dimethyl-[1,2,4]triazol-1-yl)-1-{(R)-4-[4-(4-ethyl-phenyl)-2-trifluoromethyl-thiazol-5-yl]-2-methyl-piperazin-1-yl}-ethanone]: the “% block” value on hERG K channel (concentration 300 nM) is reported as 12%; at hERG K channel (concentration 3000 nM), 44%. Further, the IC50 on human CXCR3A was determined as 36 nM.
On to `COc1ccc(-c2nc(C(F)(F)F)sc2N2CCN(C(=O)Cn3nc(C)nc3C)[C@H](C)C2)cc1F` [Example 10, 2-(3,5-Dimethyl-[1,2,4]triazol-1-yl)-1-{(R)-4-[4-(3-fluoro-4-methoxy-phenyl)-2-trifluoromethyl-thiazol-5-yl]-2-methyl-piperazin-1-yl}-ethanone], for which the “% block” value on hERG K channel (concentration 300 nM) was 7%; on hERG K channel (concentration 3000 nM) it was 20%. Besides, the IC50 at human CXCR3A is 20 nM.
Turning to `COc1ccc(-c2nc(C(F)(F)F)sc2N2CCN(C(=O)Cn3nc(C)nc3C)[C@H](C)C2)c(F)c1` [Example 11, 2-(3,5-Dimethyl-[1,2,4]triazol-1-yl)-1-{(R)-4-[4-(2-fluoro-4-methoxy-phenyl)-2-trifluoromethyl-thiazol-5-yl]-2-methyl-piperazin-1-yl}-ethanone], the “% block” value at hERG K channel (concentration 300 nM) was found to be 10%; on hERG K channel (concentration 3000 nM), 19%. Also, the IC50 at human CXCR3A is 45 nM.
Take `COc1ccc(-c2nc(C(F)(F)F)sc2N2CCN(C(=O)Cn3nc(C)nc3C)[C@H](C)C2)cn1` [Example 16, 2-(3,5-Dimethyl-[1,2,4]triazol-1-yl)-1-{(R)-4-[4-(6-methoxy-pyridin-3-yl)-2-trifluoromethyl-thiazol-5-yl]-2-methyl-piperazin-1-yl}-ethanone]: the results for the “% block” value at hERG K channel (concentration 300 nM) and at hERG K channel (concentration 3000 nM) were 4% and 14%, respectively.
The matching figures for `Cc1ncc(-c2nc(C(F)(F)F)sc2N2CCN(C(=O)Cn3nc(C)nc3C)[C@H](C)C2)cn1` [Example 23, 2-(3,5-Dimethyl-[1,2,4]triazol-1-yl)-1-{(R)-2-methyl-4-[4-(2-methyl-pyrimidin-5-yl)-2-trifluoromethyl-thiazol-5-yl]-piperazin-1-yl}-ethanone]: −1% and −2%.
With `COc1ncc(-c2nc(C(F)(F)F)sc2N2CCN(C(=O)Cn3nc(C)nc3C)[C@H](C)C2)cn1` [Example 32, 2-(3,5-Dimethyl-[1,2,4]triazol-1-yl)-1-{(R)-4-[4-(2-methoxy-pyrimidin-5-yl)-2-trifluoromethyl-thiazol-5-yl]-2-methyl-piperazin-1-yl}-ethanone], the “% block” value at hERG K channel (concentration 300 nM) is listed as −6%; at hERG K channel (concentration 3000 nM), −5%.
`[2H]C([2H])(C(=O)N1CCN(c2sc(C(F)(F)F)nc2-c2cnc(OCC)nc2)C[C@H]1C)n1nc(C)nc1C` [Example 41, 2-(3,5-Dimethyl-[1,2,4]triazol-1-yl)-1-{(R)-4-[4-(2-ethoxy-pyrimidin-5-yl)-2-trifluoromethyl-thiazol-5-yl]-2-methyl-piperazin-1-yl}-2,2-dideuterium-ethanone]: the IC50 at human CXCR3A stood at 5.6 nM.
Consider `CCc1ncc(-c2nc(C(F)(F)F)sc2N2CCN(C(=O)Cn3nc(C)nc3C)[C@H](C)C2)cn1` [Example 43, 2-(3,5-Dimethyl-[1,2,4]triazol-1-yl)-1-{(R)-4-[4-(2-ethyl-pyrimidin-5-yl)-2-trifluoromethyl-thiazol-5-yl]-2-methyl-piperazin-1-yl}-ethanone], for which the “% block” value on hERG K channel (concentration 300 nM) was 4%; on hERG K channel (concentration 3000 nM), 8%.

The record behind these values is patent publication US10259807B2, “1-(piperazin-1-yl)-2-([1,2,4]triazol-1-yl)-ethanone derivatives” (Idorsia Pharmaceuticals Ltd., priority 2013, dated 2019).
